As usually defined, the Km is the concentration of substrate that gives half-maximal velocity. For orientation: Vmax means the top rate of the reaction or transport when substrate is in excess.

For one molecule, Km and Vmax results are on record in US12606813B2, “Compositions and methods for enzyme immobilization” (priority 2017, dated 2026).

Common to all, as to format: biochemical
Experiment [1] relates to AIDA-lipase (pAIDA-lipase): Bacillus sp. 42 thermostable organic solvent tolerant lipase (encoding nucleic acid SEQ ID NO: 15) fused to AIDA-1 autotransporter …. In words: Lipase activity, continuous spectrophotometric rate determination at 400 nm, Michaelis-Menten fit, AIDA-lipase on minicell surface. As to conditions: 4-nitrophenyl-butyrate 0-5 mM, 37° C., pH 7.2; Cells/Well: 99,946,667; best-fit value. Here is the method: (§1) Kinetic analysis of the reaction was analyzed by continuous spectrophotometric rate determination at 400 nm.
This construction was conducted with primarily designed pAIDA-1 plasmid (from Addgene, Cambridge, MA) in which the lipase-encoding gene was ligated into the passenger domain within the AIDA-I autotransporter using KpnI and SacI sites as illustrated in FIG. 4A. The tags existed on the pAIDA-1 plasmid prior were used for further analysis on lipase expression. After the ligation is completed, the 6× His tag and HRV3C site are located at N-terminus of the lipase-encoding gene and the Myc tag and TEV site are placed at C-terminus of the lipase-encoding gene. The 6× His tag, which is the 5′ end of the surface-expressed fusion lipase protein was used for Cobalt immobilized metal affinity chromatography (IMAC) and for immunofluorescent staining with THE His Tag antibody [FITC] from Genscript. […]
In order to further confirm presence of the functional lipase-fusion protein in both the elution fraction from the protein purification and the surface of the cell, a lipase activity assay was designed using the lipase substrate, 4-nitrophenyl-butyrate. […] The pathlength, 0.625 cm, was calculated from the known volume of the well (200 uL) and the well's surface area (0.32 cm^2). […]

Experiment [2] deals with Brk-lipase: Bacillus sp. 42 thermostable organic solvent tolerant lipase (encoding nucleic acid SEQ ID NO: 15) fused to BrkA autotransporter, on the surface of …. In words: Lipase activity, continuous spectrophotometric rate determination at 400 nm, Michaelis-Menten fit, Brk-lipase on minicell surface. As to conditions: 4-nitrophenyl-butyrate 0-5 mM, 37° C., pH 7.2; Cells/Well: 17,706,667; best-fit value. Here is the method: as §1
For a bacterial surface display system named as BrkAutoDisplay based on the structure of autotransporter BrkA (Bordetella serum-resistance killing protein A) was used to host an exogenous gene encoding lipase. To construct a recombinant Brk-lipase expression vector, Brk autotransporter gene was first cloned into the pGEX-6P-1 plasmid. Using BamHI and EcoRI restriction sites, the lipase-encoding gene was ligated with the Brk autotransporter gene, as illustrated in FIG. 6A. […]
(§2) In order to further confirm presence of the functional lipase-fusion protein in both the elution fraction from the protein purification and the surface of the cell, a lipase activity assay was designed using the lipase substrate, 4-nitrophenyl-butyrate. […] The pathlength, 0.625 cm, was calculated from the known volume of the well (200 uL) and the well's surface area (0.32 cm^2).
For the enzymatic assay, required are the reaction buffer (100 mM Sodium Phosphate Buffer solution pH 7.2, 0.5% (v/v) Triton-X 100, 150 mM Sodium Chloride), the enzyme/cell solution in 1×PBS, and the substrate solution which is varying concentrations of 4-nitrophenyl-butyrate in acetonitrile. […] Vmax and Km were calculated using GraphPad Prism Michaelis-Menten fitting parameters. […]

In experiment [3] the test system is InaK-lipase: Bacillus sp. 42 thermostable organic solvent tolerant lipase (encoding nucleic acid SEQ ID NO: 15) fused to Ice Nucleation Protein InaK, on the …. Kind of experiment: Lipase activity, continuous spectrophotometric rate determination at 400 nm, Michaelis-Menten fit, InaK-lipase on minicell surface. The settings on record: 4-nitrophenyl-butyrate 0-5 mM, 37° C., pH 7.2; Cells/Well: 107,840,000; best-fit value. On the procedure:
as §1
Another bacterial surface display protein, Ice Nucleation Protein K (InaK) was used for expressing recombinant lipase proteins fused to anchoring linker protein (motif) that direct the incorporated fusion protein on the surface of minicells. Like BrkAutoDisplay, polynucleotide encoding Inak transmembrane protein and the lipase-encoding gene were inserted into the pGEX-6P-1 vector for producing the bacterial surface display lipase protein as illustrated in FIG. 7A. […]
as §2
For the enzymatic assay, required are the reaction buffer (100 mM Sodium Phosphate Buffer solution pH 7.2, 0.5% (v/v) Triton-X 100, 150 mM Sodium Chloride), the enzyme/cell solution in 1×PBS, and the substrate solution which is varying concentrations of 4-nitrophenyl-butyrate in acetonitrile. […] Activity was determined from a Michaelis-Menten fit of the calculated rates resulting from varying the substrate concentration according to the Table 10. […]

Regarding `CCCC(=O)Oc1ccc([N+](=O)[O-])cc1` [4-nitrophenyl-butyrate], the Km in experiment [1] came to 180 µM; in experiment [2], 221 µM; in experiment [3], 302 µM. Moreover, the maximum rate (Vmax) was 0.08174 µM/s in experiment [1], 0.04453 µM/s in experiment [2] and 0.06354 µM/s in experiment [3].
